Structures can show the parent of a compound that is named as a salt. Where two headings read alike, the source gives them in different places.
Columns and labels:
[1] = biological target: T1, 5-HT1B receptors (Homo sapiens, UniProt P28222); test: In vitro activity at 5-HT1B receptors, agonist mode (cAMP secondary messenger assay); format: cell-based
T1 construct: host or cells: cAMP Hunter cell line

[2] = biological target: T2, COX1 (Homo sapiens, UniProt P23219); test: Enzymatic assay COX1; format: biochemical; conditions: inhibitor, read-out: IC50 (μM) Antag./Blocker/Inhibitor
T2 construct: purchased BPS Bioscience

[3] = biological target: T3, COX2 (Homo sapiens, UniProt P35354); test: Enzymatic assay COX2; format: biochemical; conditions: inhibitor, read-out: IC50 (μM) Antag./Blocker/Inhibitor
T3 construct: purchased BPS Bioscience

[4] = biological target: T4, MAOA (Homo sapiens, UniProt P21397); test: Enzymatic assay MAOA; format: biochemical; conditions: inhibitor, read-out: IC50 (μM) Antag./Blocker/Inhibitor
T4 construct: purchased Sigma

[5] = biological target: T5, PDE3A (Homo sapiens, UniProt Q14432); test: Enzymatic assay PDE3A; format: biochemical; conditions: inhibitor, read-out: IC50 (μM) Antag./Blocker/Inhibitor
T5 construct: purchased Signal Chem
T5 sequence (Q14432 whole entry): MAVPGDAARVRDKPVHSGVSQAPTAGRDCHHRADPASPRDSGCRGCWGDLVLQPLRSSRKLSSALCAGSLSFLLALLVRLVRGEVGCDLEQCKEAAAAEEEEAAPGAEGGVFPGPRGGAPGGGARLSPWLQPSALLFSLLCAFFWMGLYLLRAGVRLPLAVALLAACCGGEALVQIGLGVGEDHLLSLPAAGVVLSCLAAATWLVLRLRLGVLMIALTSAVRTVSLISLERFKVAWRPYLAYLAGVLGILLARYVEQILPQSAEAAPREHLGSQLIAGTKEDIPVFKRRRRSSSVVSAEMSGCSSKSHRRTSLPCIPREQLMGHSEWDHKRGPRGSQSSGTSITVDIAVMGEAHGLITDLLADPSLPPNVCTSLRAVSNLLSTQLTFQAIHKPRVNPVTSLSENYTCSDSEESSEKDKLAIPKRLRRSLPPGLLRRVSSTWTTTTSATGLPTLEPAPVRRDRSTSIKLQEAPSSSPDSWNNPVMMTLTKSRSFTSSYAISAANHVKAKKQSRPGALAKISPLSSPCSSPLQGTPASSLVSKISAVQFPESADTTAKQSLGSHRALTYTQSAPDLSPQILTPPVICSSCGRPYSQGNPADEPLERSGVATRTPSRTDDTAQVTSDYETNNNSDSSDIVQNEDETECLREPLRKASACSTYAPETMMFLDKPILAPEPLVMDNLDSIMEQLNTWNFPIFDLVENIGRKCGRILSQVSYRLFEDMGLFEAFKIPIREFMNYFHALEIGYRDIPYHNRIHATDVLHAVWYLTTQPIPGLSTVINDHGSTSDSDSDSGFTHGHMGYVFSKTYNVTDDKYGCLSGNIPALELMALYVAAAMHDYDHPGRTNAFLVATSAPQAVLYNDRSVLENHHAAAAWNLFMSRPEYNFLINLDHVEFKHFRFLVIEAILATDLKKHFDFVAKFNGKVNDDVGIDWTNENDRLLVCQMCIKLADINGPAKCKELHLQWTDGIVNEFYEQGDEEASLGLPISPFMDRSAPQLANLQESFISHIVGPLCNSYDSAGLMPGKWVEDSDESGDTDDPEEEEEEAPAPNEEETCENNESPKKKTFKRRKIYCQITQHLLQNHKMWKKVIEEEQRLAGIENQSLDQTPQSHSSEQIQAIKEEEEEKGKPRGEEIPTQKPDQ

[6] = biological target: T6, PDE4D2 (Homo sapiens, UniProt Q08499); test: Enzymatic assay PDE4D2; format: biochemical; conditions: inhibitor, read-out: IC50 (μM) Antag./Blocker/Inhibitor
T6 construct: purchased Signal Chem

[7] = biological target: 5-Hydroxytryptamine (Serotonin) Receptor 2B (5-HT2B) (Homo sapiens, UniProt P41595); test: Calcium flux secondary messenger assay, agonist format; format: cell-based; conditions: read-out: EC50 (μM) Agonist/Opener
[8] = biological target: T7, 5-Hydroxytryptamine (Serotonin) Receptor 3A (5-HT3A) (Homo sapiens, UniProt P46098); test: Ion channel assay, opener format; format: cell-based; conditions: read-out: EC50 (μM) Agonist/Opener
T7 construct: expressed in transfected cells
T7 sequence (P46098 24-478): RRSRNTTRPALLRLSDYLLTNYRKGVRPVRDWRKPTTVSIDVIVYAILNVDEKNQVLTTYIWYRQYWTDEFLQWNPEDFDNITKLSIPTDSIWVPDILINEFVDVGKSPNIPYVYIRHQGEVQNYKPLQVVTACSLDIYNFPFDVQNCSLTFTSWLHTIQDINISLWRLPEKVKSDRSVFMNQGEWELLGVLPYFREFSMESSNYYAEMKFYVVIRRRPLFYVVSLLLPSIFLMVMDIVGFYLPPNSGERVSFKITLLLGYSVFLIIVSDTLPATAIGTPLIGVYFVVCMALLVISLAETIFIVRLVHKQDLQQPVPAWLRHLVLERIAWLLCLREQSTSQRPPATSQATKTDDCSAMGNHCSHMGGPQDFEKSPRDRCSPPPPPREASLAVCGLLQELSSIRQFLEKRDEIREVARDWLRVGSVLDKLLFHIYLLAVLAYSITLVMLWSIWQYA

[9] = biological target: T7, 5-Hydroxytryptamine (Serotonin) Receptor 3A (5-HT3A); test: Ion channel assay, blocker format; format: cell-based; conditions: read-out: IC50 (μM) Antag./Blocker/Inhibitor
[10] = biological target: T8, 5-Hydroxytryptamine (Serotonin) Receptor 1A (5-HT1A) (Homo sapiens, UniProt P08908); test: cAMP secondary messenger assay, agonist format; format: cell-based; conditions: read-out: EC50 (μM) Agonist/Opener
T8 construct: host or cells: cAMP Hunter cell line

[11] = biological target: Histamine Receptor H1 (HRH1) (Homo sapiens, UniProt P35367); test: cell-based; conditions: Calcium Flux, antagonist, read-out: IC50 (μM) Antag./Blocker/Inhibitor
Sequence of Histamine Receptor H1 (HRH1) (P35367 whole entry): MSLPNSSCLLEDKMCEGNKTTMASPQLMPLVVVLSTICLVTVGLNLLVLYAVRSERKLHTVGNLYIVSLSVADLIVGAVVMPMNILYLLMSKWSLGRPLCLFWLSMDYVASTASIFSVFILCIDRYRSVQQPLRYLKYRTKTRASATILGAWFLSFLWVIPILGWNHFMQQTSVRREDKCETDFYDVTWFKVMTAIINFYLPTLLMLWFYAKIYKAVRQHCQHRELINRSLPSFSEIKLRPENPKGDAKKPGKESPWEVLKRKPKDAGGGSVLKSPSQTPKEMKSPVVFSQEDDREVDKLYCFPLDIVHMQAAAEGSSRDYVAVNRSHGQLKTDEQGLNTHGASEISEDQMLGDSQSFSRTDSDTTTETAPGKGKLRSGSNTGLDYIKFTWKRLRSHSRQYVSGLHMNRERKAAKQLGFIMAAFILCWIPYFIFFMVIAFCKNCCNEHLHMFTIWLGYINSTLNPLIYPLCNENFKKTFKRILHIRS

[12] = biological target: Adenosine Receptor A2A (ADORA2A) (Homo sapiens, UniProt P29274); test: Calcium flux secondary messenger assay, antagonist format; format: cell-based; conditions: read-out: IC50 (μM) Antag./Blocker/Inhibitor
[13] = biological target: T9, Adrenergic Receptor β1 (ADRB1) (Homo sapiens, UniProt P08588); test: cAMP secondary messenger assay, agonist format; format: cell-based; conditions: read-out: EC50 (μM) Agonist/Opener
T9 sequence (P08588 whole entry): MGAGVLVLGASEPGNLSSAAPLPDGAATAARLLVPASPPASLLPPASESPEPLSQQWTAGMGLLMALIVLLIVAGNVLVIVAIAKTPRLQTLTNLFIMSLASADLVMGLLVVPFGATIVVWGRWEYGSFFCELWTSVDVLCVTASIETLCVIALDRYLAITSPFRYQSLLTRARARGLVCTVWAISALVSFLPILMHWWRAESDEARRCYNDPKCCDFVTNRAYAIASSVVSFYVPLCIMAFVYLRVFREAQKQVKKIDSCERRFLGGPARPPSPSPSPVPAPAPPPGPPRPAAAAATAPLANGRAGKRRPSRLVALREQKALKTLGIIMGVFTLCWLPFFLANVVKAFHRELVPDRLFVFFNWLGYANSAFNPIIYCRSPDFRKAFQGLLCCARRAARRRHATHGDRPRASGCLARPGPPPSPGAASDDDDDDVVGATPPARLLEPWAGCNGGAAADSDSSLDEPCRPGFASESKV

[14] = biological target: T9, Adrenergic Receptor β1 (ADRB1); test: cAMP secondary messenger assay, antagonist format; format: cell-based; conditions: read-out: IC50 (μM) Antag./Blocker/Inhibitor
[15] = biological target: Muscarinic acetylcholine Receptor M1 (CHRM1) (Homo sapiens, UniProt P11229); test: cell-based; conditions: Calcium Flux, antagonist, read-out: IC50 (μM) Antag./Blocker/Inhibitor
Sequence of Muscarinic acetylcholine Receptor M1 (CHRM1) (P11229 whole entry): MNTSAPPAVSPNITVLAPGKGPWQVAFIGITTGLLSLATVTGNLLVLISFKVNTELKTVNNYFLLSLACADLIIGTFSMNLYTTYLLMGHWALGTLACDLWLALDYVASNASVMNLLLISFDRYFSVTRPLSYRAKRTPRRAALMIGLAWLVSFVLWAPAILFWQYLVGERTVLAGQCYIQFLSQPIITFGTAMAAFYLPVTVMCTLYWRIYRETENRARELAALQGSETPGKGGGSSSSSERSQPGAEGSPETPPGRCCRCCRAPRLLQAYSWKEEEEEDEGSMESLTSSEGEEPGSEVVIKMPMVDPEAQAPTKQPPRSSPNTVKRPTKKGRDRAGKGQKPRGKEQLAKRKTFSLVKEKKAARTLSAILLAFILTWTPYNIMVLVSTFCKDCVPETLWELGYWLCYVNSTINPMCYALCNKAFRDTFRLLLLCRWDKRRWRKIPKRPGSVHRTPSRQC

[16] = biological target: Muscarinic acetylcholine Receptor M2 (CHRM2) (Homo sapiens, UniProt P08172); test: cAMP secondary messenger assay, agonist format; format: cell-based; conditions: read-out: EC50 (μM) Agonist/Opener
[17] = biological target: T10, Muscarinic acetylcholine Receptor M3 (CHRM3) (Homo sapiens, UniProt P20309); test: Calcium flux secondary messenger assay, agonist format; format: cell-based; conditions: read-out: EC50 (μM) Agonist/Opener
T10 sequence (P20309 whole entry): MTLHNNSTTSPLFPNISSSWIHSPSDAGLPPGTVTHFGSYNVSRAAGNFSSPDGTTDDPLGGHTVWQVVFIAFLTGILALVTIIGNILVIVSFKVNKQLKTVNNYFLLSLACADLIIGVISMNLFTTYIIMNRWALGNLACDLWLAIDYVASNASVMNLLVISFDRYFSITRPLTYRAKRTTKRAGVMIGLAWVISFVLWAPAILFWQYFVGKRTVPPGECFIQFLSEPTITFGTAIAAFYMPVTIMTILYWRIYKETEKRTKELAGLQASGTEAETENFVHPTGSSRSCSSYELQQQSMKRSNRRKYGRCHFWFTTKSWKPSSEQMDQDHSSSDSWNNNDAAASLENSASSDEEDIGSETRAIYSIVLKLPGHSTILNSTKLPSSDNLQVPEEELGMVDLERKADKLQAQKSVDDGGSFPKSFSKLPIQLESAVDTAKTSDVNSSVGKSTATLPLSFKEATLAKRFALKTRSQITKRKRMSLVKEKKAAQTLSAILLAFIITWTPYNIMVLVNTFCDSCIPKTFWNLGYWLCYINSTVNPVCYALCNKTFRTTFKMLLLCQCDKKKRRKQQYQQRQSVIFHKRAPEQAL

[18] = biological target: T10, Muscarinic acetylcholine Receptor M3 (CHRM3); test: cell-based; conditions: Calcium Flux, antagonist, read-out: IC50 (μM) Antag./Blocker/Inhibitor
[19] = biological target: Cannabinoid Receptor 2 (CNR2) (Homo sapiens, UniProt P34972); test: cAMP secondary messenger assay, antagonist format; format: cell-based; conditions: read-out: IC50 (μM) Antag./Blocker/Inhibitor
[20] = biological target: Dopamine Receptor D2 (DRD2S) (Homo sapiens, UniProt P14416); test: cAMP secondary messenger assay, antagonist format; format: cell-based; conditions: read-out: IC50 (μM) Antag./Blocker/Inhibitor
[21] = biological target: Endothelin Receptor Type A (EDNRA) (Homo sapiens, UniProt P25101); test: Calcium flux secondary messenger assay, antagonist format; format: cell-based; conditions: read-out: IC50 (μM) Antag./Blocker/Inhibitor
[22] = biological target: T11, Histamine Receptor H2 (HRH2) (Homo sapiens, UniProt P25021); test: cAMP secondary messenger assay, agonist format; format: cell-based; conditions: read-out: EC50 (μM) Agonist/Opener
T11 sequence (P25021 whole entry): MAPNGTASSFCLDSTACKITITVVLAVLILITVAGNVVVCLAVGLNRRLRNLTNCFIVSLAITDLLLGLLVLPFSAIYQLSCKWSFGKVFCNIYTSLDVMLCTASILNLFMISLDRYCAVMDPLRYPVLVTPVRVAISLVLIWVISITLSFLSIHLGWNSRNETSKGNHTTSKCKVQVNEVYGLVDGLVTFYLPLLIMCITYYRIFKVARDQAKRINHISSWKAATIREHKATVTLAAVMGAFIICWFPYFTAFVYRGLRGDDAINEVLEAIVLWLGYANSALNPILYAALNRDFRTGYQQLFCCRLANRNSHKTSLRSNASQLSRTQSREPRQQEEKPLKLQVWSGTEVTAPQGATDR

[23] = biological target: T11, Histamine Receptor H2 (HRH2); test: cAMP secondary messenger assay, antagonist format; format: cell-based; conditions: read-out: IC50 (μM) Antag./Blocker/Inhibitor
[24] = biological target: Opioid Receptor Delta 1 (OPRD1) (Homo sapiens, UniProt P41143); test: cAMP secondary messenger assay, agonist format; format: cell-based; conditions: read-out: EC50 (μM) Agonist/Opener
[25] = biological target: Opioid Receptor Kappa 1 (OPRK1) (Homo sapiens, UniProt P41145); test: cAMP secondary messenger assay, antagonist format; format: cell-based; conditions: read-out: IC50 (μM) Antag./Blocker/Inhibitor
Sequence of Opioid Receptor Kappa 1 (OPRK1) (P41145 whole entry): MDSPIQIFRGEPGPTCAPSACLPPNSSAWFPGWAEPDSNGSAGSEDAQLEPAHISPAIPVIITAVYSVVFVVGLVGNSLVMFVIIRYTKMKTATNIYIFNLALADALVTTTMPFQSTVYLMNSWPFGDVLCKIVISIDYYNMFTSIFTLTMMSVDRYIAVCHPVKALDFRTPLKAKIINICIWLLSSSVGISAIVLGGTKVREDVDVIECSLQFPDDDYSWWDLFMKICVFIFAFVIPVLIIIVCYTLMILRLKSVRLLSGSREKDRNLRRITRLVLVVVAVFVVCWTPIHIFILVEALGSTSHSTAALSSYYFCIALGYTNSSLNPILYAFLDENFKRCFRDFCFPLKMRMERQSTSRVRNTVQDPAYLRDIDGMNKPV

[26] = biological target: Nicotinic acetylcholine Receptor α4 β2 (nAChR(a4/b2)) (Homo sapiens, UniProt P17787+P43681); test: Ion channel assay, opener format; format: cell-based; conditions: read-out: EC50 (μM) Agonist/Opener
[27] = biological target: CAV1.2 (Voltage-gated L-type calcium channel) (Homo sapiens, UniProt Q13936); test: Ion channel assay, blocker format; format: cell-based; conditions: read-out: IC50 (μM) Antag./Blocker/Inhibitor
[28] = biological target: T12, Rho Associated Coiled-Coil Containing Protein Kinase 1 (ROCK1) (Homo sapiens, UniProt Q13464); test: Kinase binding assay (KINOMEscan); conditions: inhibitor, read-out: IC50 (μM) Antag./Blocker/Inhibitor
T12 construct: T7 phage fusion (most assays) or DNA tag for qPCR (the remaining kinases); made in house; host or cells: E. coli (BL21-derived, T7 phage display) or HEK-293

[29] = biological target: Nuclear Hormone Glucocorticoid Receptor (GR) (Homo sapiens, UniProt P04150); test: NHR Protein Interaction assay, agonist format; format: cell-based; conditions: read-out: EC50 (μM) Agonist/Opener
[30] = biological target: NAV1.5 (tetrodotoxin-resistant voltage-gated sodium channel) (Homo sapiens, UniProt Q14524); test: cell-based
[31] = biological target: dopamine transporter (Homo sapiens, UniProt Q01959); test: Monoamine transporter uptake assay (Neurotransmitter Transporter Uptake Assay Kit), blocker format
[32] = biological target: norepinephrine transporter (Homo sapiens, UniProt P23975); test: as above

T1 sequence (P28222 whole entry): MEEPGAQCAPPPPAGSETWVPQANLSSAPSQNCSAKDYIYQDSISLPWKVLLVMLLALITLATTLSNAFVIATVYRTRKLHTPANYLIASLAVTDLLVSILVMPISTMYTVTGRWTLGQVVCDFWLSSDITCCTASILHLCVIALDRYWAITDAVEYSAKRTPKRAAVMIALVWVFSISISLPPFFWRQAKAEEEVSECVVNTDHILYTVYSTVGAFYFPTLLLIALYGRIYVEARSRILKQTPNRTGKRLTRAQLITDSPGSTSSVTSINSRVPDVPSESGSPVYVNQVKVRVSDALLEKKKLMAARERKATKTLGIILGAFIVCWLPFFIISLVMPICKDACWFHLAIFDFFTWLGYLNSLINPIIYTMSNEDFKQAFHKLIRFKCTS

CN(C)CCc1ccn2ccccc12 [28-12 oxalate, 2-(indolizin-1-yl)-N, N-dimethylethan-1-amine oxalate]
EC50 ([1]; 5-HT1B, cAMP, read-out: EC50 (μM) Agonist/Opener): 0.143 µM
EC50 ([1]; EC50, agonism of 5-HT1B receptors, ten concentrations up to 30 μM): ~0.143 µM
IC50 [2]: 5.13 µM
IC50 [3]: > 30 µM
IC50 [4]: 7.25 µM
IC50 [5]: > 30 µM
IC50 [6]: > 30 µM
EC50 [7]: > 30 µM
EC50 [8]: > 30 µM
IC50 [9]: 7.82 µM
EC50 [10]: > 30 µM
IC50 [11]: 9.27 µM
IC50 [12]: > 30 µM
EC50 [13]: > 30 µM
IC50 [14]: > 30 µM
IC50 [15]: > 30 µM
EC50 [16]: > 30 µM
EC50 [17]: > 30 µM
IC50 [18]: > 30 µM
IC50 [19]: > 30 µM
IC50 [20]: 22.3 µM
IC50 [21]: > 30 µM
EC50 [22]: > 30 µM
IC50 [23]: > 30 µM
EC50 [24]: > 30 µM
IC50 [25]: > 30 µM
EC50 [26]: > 30 µM
IC50 [27]: > 30 µM
IC50 [28]: > 30 µM
EC50 [29]: > 30 µM
IC50 [30]: > 30 µM
IC50 [31]: > 30 µM
IC50 [32]: > 30 µM

From US20250042900A1 (priority 2022, published 2025)
